Assay results as given in ChEMBL document CHEMBL4325935, “Molecular Basis for the Selective Inhibition of Histone Deacetylase 6 by a Mercaptoacetamide Inhibitor” (ACS Med Chem Lett, 2018).

What was measured:
[1] = molecular target: T1, Protein deacetylase HDAC6 (Homo sapiens, UniProt Q9UBN7); assay: Inhibition of full length human N-terminal FLAG-tagged HDAC6 (1 to 1215 residues) expressed in HEK293 cells preincubated for 15 mins followed by acetyl-Gly-Ala-[acetyl-Lys]-AMC substrate addition measured after 30 mins by fluorimetric method; assay type: cell-based
T1 sequence (Q9UBN7 whole entry): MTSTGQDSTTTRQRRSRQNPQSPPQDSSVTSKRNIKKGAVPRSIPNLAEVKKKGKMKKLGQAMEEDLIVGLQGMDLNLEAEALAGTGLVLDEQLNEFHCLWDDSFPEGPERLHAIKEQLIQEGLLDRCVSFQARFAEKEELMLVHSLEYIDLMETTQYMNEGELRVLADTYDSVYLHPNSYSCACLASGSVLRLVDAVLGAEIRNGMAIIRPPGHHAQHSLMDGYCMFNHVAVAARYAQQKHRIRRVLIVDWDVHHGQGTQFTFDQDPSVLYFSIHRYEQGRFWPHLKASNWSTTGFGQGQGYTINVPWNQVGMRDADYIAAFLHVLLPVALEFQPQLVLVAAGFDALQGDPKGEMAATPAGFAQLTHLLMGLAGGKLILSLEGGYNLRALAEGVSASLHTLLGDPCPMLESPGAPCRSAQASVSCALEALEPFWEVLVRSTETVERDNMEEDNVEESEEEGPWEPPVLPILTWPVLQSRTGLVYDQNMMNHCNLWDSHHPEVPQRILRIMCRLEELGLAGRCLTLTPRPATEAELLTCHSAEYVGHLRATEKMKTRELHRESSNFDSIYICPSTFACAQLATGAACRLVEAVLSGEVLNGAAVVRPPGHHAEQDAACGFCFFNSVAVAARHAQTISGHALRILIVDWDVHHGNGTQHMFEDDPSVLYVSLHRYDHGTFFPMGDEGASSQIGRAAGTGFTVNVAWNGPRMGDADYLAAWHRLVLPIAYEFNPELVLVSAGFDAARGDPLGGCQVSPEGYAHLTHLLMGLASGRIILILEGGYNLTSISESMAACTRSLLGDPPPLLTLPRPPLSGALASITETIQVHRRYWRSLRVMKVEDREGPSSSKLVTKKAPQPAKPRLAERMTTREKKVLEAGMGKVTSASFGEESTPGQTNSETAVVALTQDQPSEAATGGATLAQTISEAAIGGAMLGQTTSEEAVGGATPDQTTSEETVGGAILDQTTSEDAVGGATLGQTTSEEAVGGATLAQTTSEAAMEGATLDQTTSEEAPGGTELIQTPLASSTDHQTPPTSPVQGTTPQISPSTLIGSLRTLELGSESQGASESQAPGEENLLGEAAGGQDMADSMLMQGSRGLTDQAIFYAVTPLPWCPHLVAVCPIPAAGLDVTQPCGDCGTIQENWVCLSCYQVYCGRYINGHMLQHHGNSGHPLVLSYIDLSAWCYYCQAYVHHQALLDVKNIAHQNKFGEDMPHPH

Histone deacetylase 8 = molecular target: T2, Histone deacetylase 8 (Homo sapiens, UniProt Q9BY41); assay: Inhibition of full length human N-terminal FLAG-tagged HDAC8 (1 to 377 residues) expressed in HEK293 cells preincubated for 15 mins followed by Boc-[trifluoroacetyl-Lys]-AMC substrate addition measured after 30 mins by fluorimetric method; assay type: cell-based
T2 sequence (Q9BY41 whole entry): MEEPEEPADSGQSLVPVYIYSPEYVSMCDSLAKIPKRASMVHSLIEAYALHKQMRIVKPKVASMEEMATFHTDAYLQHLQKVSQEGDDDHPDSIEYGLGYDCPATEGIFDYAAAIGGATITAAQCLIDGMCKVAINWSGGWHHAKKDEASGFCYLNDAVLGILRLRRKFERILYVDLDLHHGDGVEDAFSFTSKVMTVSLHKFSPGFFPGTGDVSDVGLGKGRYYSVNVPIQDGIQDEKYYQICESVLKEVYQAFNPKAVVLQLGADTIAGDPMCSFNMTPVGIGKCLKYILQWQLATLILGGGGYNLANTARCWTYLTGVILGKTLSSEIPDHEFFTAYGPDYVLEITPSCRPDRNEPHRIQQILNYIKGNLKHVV

IC50 [1]: 0.05 µM
IC50 (Histone deacetylase 8): 12 µM
SMILES: O=C(CS)NCCCCCn1ccc2cc(Cl)c(Cl)cc21
